Reference: US7498046B2, “Composition for inducing immune response comprising inverted microsomes” (Queen Mary & Westfield College, priority 2003, dated 2009)

Experiments:
B3Z T cell hybridoma = assay: Activation of B3Z T cell hybridoma (LacZ activity, IL-2 ELISA); format: cell-based; conditions: soluble peptide
Experimental: Microsomes from 2×10^5 RAW309Cr.1 cells were used to load OVA or Ld-specific peptide as described in Material and Methods. 2×10^5 RAW309Cr.1 cells were pulsed with OVA peptide (see Material and Methods). After washing, peptide-pulsed 2×10^5 RAW309Cr.1 cells, OVA-loaded microsomes, Ld-peptide loaded microsomes, and the microsomes without peptide were co-cultured with 10^5 B3Z cells for over night. A) After washing with PBS, LacZ activity in B3Z cells was assayed by total cellular lysates with the LacZ substrate ONPG. The absorbance ([…]) was read after incubation for four hours at 37° C. B3Z cells cultured with 100 nM OVA peptide and normal medium were used as positive and negative control for the B3Z stimulation. B) The supernatants of these cultures were submitted for measuring IL-2 production by ELISA. The experiment was repeated four times with similar results. Error bars indicate the SEM of triplicate cultures. […]
The prepared stimuli including peptide-edited microsomes, peptide-pulsed RAW309Cr.1 cells, OVA peptide, were added to culture of 10^5 B3Z cells in a total of 200 μl. […] The linear range of OVA-response was determined by the addition of serial dilutions of SIINFEKL to the medium due to that the B3Z cells themselves express Kb and present SIINFEKL.

H2-Kb molecules = target: T1, H2-Kb molecules (Mus musculus, UniProt P01901); assay: Photo-crosslinking peptide binding assay of 125I-labelled ANB-NOS-OVA peptide to H2-Kb in microsomes or on the surface of RAW309Cr.1 cells; set-up: species or system murine; conditions: competitor at the concentration of report peptides
T1 construct: incubated with microsomes of RAW309Cr.1 and living RAW309Cr.1 cells under UV irradiation; endogenous in cells; host or cells: RAW309Cr.1 murine macrophage cell line (purified ER microsomes, or living cells)
T1 sequence (P01901 22-369): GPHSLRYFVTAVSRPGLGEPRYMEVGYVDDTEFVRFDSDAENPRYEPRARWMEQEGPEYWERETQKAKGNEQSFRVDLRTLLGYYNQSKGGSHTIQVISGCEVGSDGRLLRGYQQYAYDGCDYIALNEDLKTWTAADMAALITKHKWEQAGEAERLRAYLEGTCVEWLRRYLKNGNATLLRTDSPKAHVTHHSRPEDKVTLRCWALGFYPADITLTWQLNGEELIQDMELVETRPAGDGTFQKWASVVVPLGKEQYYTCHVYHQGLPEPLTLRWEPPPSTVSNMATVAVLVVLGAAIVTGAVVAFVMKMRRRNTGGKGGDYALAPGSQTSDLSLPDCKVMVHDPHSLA
T1 sequence (P01887 21-119 partner): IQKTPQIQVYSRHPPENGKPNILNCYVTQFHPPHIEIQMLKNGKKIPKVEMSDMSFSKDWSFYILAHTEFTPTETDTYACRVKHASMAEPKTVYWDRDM
Experimental: Peptide OVA 257-264 (SIINFEKL) was modified by substitution of third residue isoleucine to tyrosine in order for iodination and by covalently coupling a phenylazide with a nitro group on the ε-amino group of lysine at position seven. This nitro group can be photoactivated. The crosslinker modification was performed by mixing 0.5 mg of ANB-NOS (N-5-azido-2-nitrobenzoyloxysuccinimide) in 200 μl DMSO with 100 μg peptide in 100 μl PBS and 50 μl CPAS (3-[cyclohexylamino]-1-propanesulfonic acid) (0.5 M, pH 10). The reaction was allowed to proceed for 30 min on ice. To remove the excess ANB-NOS and ions, the mixture was purified by gel filtration on Sephadex G-10 and subsequently by HPLC. […]
To detect the peptide-receptive MHC class I molecules in the microsomal membranes, a crosslinker (ANB-NOS) was conjugated to the ε-amino group of the lysine residue of an H2-Kb-binding ovalbumin (OVA) peptide (residues 257-264, SIINFEKL) and substituted the isoleucine at position 3 with tyrosine to allow for iodination. […] For a quantitative comparison of peptide-receptive H2-Kb in microsomes and on cell surface of living RAW309Cr.1, the modified OVA peptide was labelled by ^125I and incubated with microsomes of RAW309Cr.1 and living RAW309Cr.1 cells under UV irradiation. Peptide-bound H2-Kb molecules were subsequently analysed by immunoprecipitation with an anti-H2 antibody Y3.

[1] = tested on: T cells isolated from spleens; assay: In vivo immunisation of C57BL/6 mice, spleen T cells cross-stimulated in vitro (proliferation, IL-2); conditions: C57BL/6, injected twice subcutaneously, one week interval, T cells six days after second injection
Excerpt: C57BL/6 (H-2b) mice were primed […]. by OVA-edited microsomes or Ld-peptide loaded microsomes or OVA peptide or OVA-pulsed RAW309Cr.1 cells and challenged by same stimulus after seven days. Six days after the challenge, enriched T cells were isolated from spleens and cultured at 10^5 cells/well with stimulus indicated. The RAW309Cr.1 cells were irradiated before co-culture with T cells. After three days, supernatants were harvested for cytokine ELISA (b) and cultures pulsed with [^3H]thymidine (a). The results are representative of groups of at least three mice per treatment group and the experiment was repeated four times with similar results. Error bars indicate the SEM of triplicate cultures. Similar set of experiments performed in Balb/c (H-2d) mice served as negative control.
To further examine the ability of OVA-edited microsomes to induce immune responses in vivo, OVA-edited microsomes from RAW309Cr.1 cells, microsomes loaded with Ld-specific peptide, soluble OVA peptides, RAW309Cr.1 pulsed with OVA peptides and PBS were used to induce immune response in vivo. Five groups of C57BL/6 or Balb/c mice, each group consisting of five mice, were injected twice subcutaneously with above stimuli, respectively. The interval between injections was one week. […]

SIINFEKL [OVA peptide]
IL-2 production by B3Z cells (B3Z T cell hybridoma): could induce IL-2 production
Competition of the labelled report OVA peptide binding to Kb (H2-Kb molecules): 50%
Induction of T cell responses by the immunising stimulus (proliferation of spleen T cells) [1]: responded to OVA-edited microsomes in vitro
